Results on 1 molecule are retold here after patent publication US20240423982A1 (Eli Lilly and Company, priority 2023, published 2024).

In this data set the test system is new-onset type-1 diabetes patients. The experiment in a line: randomized placebo-controlled study of baricitinib 4 mg per day for 48 weeks in new-onset type 1 diabetes. It counts as in vivo, human. The method, then: Participants: Eligibility criteria included age between 10 and 30 years, diagnosis of type 1 diabetes according to ADA criteria within 100 days of starting study drug, presence of at least one islet autoantibody and either random C-peptide>0.3 pmol/mL or C-peptide>0.2 pmol/mL per during a 2 h MMTT. Exclusion criteria included treatment with other immunomodulatory agents, and clinically significant comorbidities including cytopenias, known malignancy, history of thrombosis or LDL cholesterol>155 mg/dL. All participants received standard diabetes management with a target HbA1c of less than 7% in adults and less than 7.5% in participants less than 18 years of age, in accordance with current ADA recommendations.
Primary, secondary, and exploratory outcomes: The primary outcome was the average C-peptide during a 2 h MMTT at 48 weeks, calculated as the area under the trapezoidal curve divided by 120 minutes. Secondary outcomes included HbA1c, total daily insulin use, CGM measures from the ambulatory glucose profile. Participants were requested to wear either a Freestyle Libre2 or Dexcom G6 CGM for 14 days at baseline, 12, 24, 48, 72 and 96 weeks. Exploratory mechanistic outcomes included the assessment of basal and cytokine-stimulated phosphorylation of STAT proteins in fresh whole blood, and the frequency of T-cell subsets in PBMC. Samples for these were collected at baseline and 24 weeks.

[1] abbreviates: weeks 12 and 24, but not week 48, versus placebo.

Regarding `CCS(=O)(=O)N1CC(CC#N)(n2cc(-c3ncnc4[nH]ccc34)cn2)C1` [baricitinib, {1-(ethylsulfonyl)-3-[4-(7H-pyrrolo[2,3-d]pyrimidin-4-yl)-1H-pyrazol-1-yl]azetidin-3-yl}acetonitrile], the tolerability result (4 mg per day orally, 48 weeks) is listed as “well tolerated”. Further, under “12, 24 and 48 weeks, versus placebo”, the “glucose coefficient of variation (CGM)” value is given as “improved significantly”. This molecule also showed a HbA1c (48 weeks, mean±SEM, placebo 7.4±0.27, p=0.216) of 7.0%. Where the note is “FIG. 1B, over treatment”, the “insulin use compared to placebo” value was “significantly lower insulin use”. For the same molecule, where the note is “baseline, 12, 24, or 48 weeks”, the “lipid profile, liver function or renal function versus placebo” value was “no significant differences”. Besides, the “time below range <70 mg/dl (<3.9 mmol/L) (CGM)” value (between groups) was “no significant differences”. For the same molecule, the “median number of AEs” value (placebo 3) was 2. The “SAEs attributed to study medication” value (total of seven SAEs recorded in both groups) is listed as “none of which were attributed to study medication”. In addition, the “median C-peptide during 2 h MMTT” value (week 48, 4 mg per day orally, placebo 0.45 (0.13-0.63), p=0.001) is on record as 0.65 (0.31-0.82) pmol/mL/min. For the setting “week 48, median, placebo 0.48 (0.37-0.64), p=0.004”, the daily insulin dose is 0.39 (0.22-0.57) U/kg/day. For the same molecule, the “C-peptide decline compared to baseline” value (week 48, placebo 29.5%, p=0.008) is recorded as 5.5%. Further, where the note is “weeks 12, 24 or 48”, the “HbA1c difference between groups” value is reported as “did not differ significantly”. Also, under “weeks 12 and 24”, the “daily insulin requirement versus baseline” value was “decreased below baseline” and the “median C-peptide compared to placebo” value was “significantly higher”. Besides, under setting [1], the “percent time above 180 mg/dl (10 mmol/l) (CGM)” value is recorded as “significantly lower”; the “percent time between 70 and 180 mg/dL (3.9 and 10 mmol/L) (CGM)” value is reported as “higher”.
